Source: ChEMBL document CHEMBL3784999, “Investigation of 4-amino-5-alkynylpyrimidine-2(1H)-ones as anti-mycobacterial agents” (Bioorg Med Chem, 2016)
In brackets after ≈: the same amount, converted by molar mass.

System: Mycobacterium tuberculosis
Assay: Antimycobacterial activity against Mycobacterium bovis BCG assessed as inhibition of mycobacterial replication after 6 days by microplate Alamar blue assay
Assay type: functional
Conditions: variant bovis BCG, 144 h

CO[C@H]1/C=C/O[C@@]2(C)Oc3c(C)c(O)c4c(O)c(c(/C=N/N5CCN(C)CC5)c(O)c4c3C2=O)NC(=O)/C(C)=C\C=C\[C@H](C)[C@H](O)[C@@H](C)[C@@H](O)[C@@H](C)[C@H](OC(C)=O)[C@@H]1C [RIFAMPIN]
MIC90: 1 µg/mL (≈ 1.22 µM)

CCCCCCCCC#Cc1c[nH]c(=O)nc1N
MIC50: 50 µg/mL (≈ 202 µM)

CCCCCC#Cc1c[nH]c(=O)nc1N
MIC50: 12.5 µg/mL (≈ 60.9 µM)

Nc1nc(=O)[nH]cc1C#Cc1ccccc1
MIC50: 25 µg/mL (≈ 118 µM)
